Test results taken from patent US20160193240A1, “Ulmoside-A: Useful For Prevention Or Cure Of Metabolic Diseases” (COUNCIL OF SCIENTIFIC & INDUSTRIAL RESEARCH, priority 2013, published 2016).

Test system: C2C12 myotubes
Test: Glucose uptake assay (3H-deoxyglucose) in C2C12 myotubes
Assay type: cell-based, mouse
Conditions: 10 nM
Experimental: A. ULMA enhances glucose uptake in C2C12 myotubes. C2C12 myotubes in 24 well plates were treated with vehicle (DMSO) or 10 nM ULMA and glucose uptake assay was performed in presence or absence of 100 nM insulin. Data is mean±SEM of six independent experiments performed in triplicates. *p<0.05, **p<0.01, ***p<0.001 as determined by two tailed unpaired student's t-test.
C. siAdipoR1 eliminates ULMA induction of glucose uptake. C2C12 myotubes were transfected with nonsilencing siC or siAdipoR1. 72 h after transfection, cells were treated for 24 h with 10 nM ULMA and glucose uptake assay was performed. Data is mean±SEM of three independent experiments performed in triplicates. ***p<0.001 as determined by two tailed unpaired student's t-test.
Adiponectin is known to enhance glucose uptake and fatty acid oxidation in skeletal muscle and myotubes (T. Kadowaki, T. Yamauchi, N. Kubota, K. Hara, K. Ueki, K. Tobe. J Clin Invest. 116(7): 1784-1792. 2006; T. Yamauchi, J. Kamon, Y. Ito, A. Tsuchida, T. Yokomizok, S. Kita, T. Sugiyama, M. Miyagishi, K. Hara, M. Tsunodaq, K. Murakamiq, T. Ohteki, S. Uchida, S. Takekawa, H. Waki, N. H. Tsuno, Y. Shibata, Y. Terauchi, P. Froguel, K. Tobe, S. Koyasu, K. Taira, T. Kitamura, T. Shimizuk, R. Nagai, T. Kadowaki. Nature. 423(6941):762-769. 2003). Therefore the ability of ULMA to influence insulin-dependent and independent glucose uptake and fatty acid oxidation was investigated in C2C12 myotubes. […] Subsequently, the cells were lysed in 100 μl 0.5N NaOH and 5 μl lysate was used for protein concentration determination, and rest of the lysate was used to measure cellular radioactivity in a beta-counter (Beckman Coulter). […] Radioactivity that had become adsorbed onto the filter discs was then quantified by liquid scintillation counting in a beta-counter (Beckman Coulter). The cells were lysed with 200 μl 0.5N NaOH and 5 μl of the lysate was used for protein estimation using Bradford assay and the radioactivity was normalized with the protein content.

With `O=C1c2c(cc(O)c([C@@H]3O[C@H](CO)[C@@H](O)[C@H](O)[C@H]3O)c2O)O[C@@H](c2ccc(O)c(O)c2)[C@@H]1O` [ULMA, (2S,3S)-(+)-3′,4′,5,7-tetrahydroxydihydroflavonol-6-C-β-D-glucopyranoside] the “ULMA-induced glucose uptake with siAdipoR1 (not siC)” value (24 h, 72 h after siRNA transfection) was “completely eliminated”, the “glucose uptake in absence of insulin” value (24 hours) was “enhanced” and the “glucose uptake in presence of insulin” value (24 hours, 100 nM insulin 20 min) was “enhanced”.
